In US12606561B2, “Substituted pyrazolo[1,5-a][1,3,5]triazines as CDK inhibitors” (QURIENT CO., LTD., priority 2018, dated 2026):
pIC50: −log10 of the molar value.

Assays:
CDK1/Cyclin B = molecular target: T1, CDK1/Cyclin B (Homo sapiens, UniProt P06493); test: Enzymatic assay for CDK1 (LANCE Ultra kinase assay, FRET based); format: biochemical; details: ATP at Km; read-out: CDK1 enzymatic activity IC50
T1 construct: purchased Invitrogen PR4768C
Method in brief: (§1)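 FRET read-out: Eu-labeled anti-phospho-antibody binding a phosphorylated ULight peptide. Purified CDK–cyclin complex, ATP at Km.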

CDK2/Cyclin A = molecular target: T2, CDK2/Cyclin A (Homo sapiens, UniProt P24941); test: Enzymatic assay for CDK2 (LANCE Ultra kinase assay, FRET based); format: biochemical; details: ATP at Km
T2 construct: purchased Invitrogen PV6290
Method in brief: (§2)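 Compounds tested as 8 doses in 4-fold steps against CDK2/Cyclin A ([…]) or CDK5/p25 ([…]), with ATP at its Km and 68 nM ULight-MBP substrate. After 60 min at 23° C., EDTA plus Eu-labelled anti-phospho-MBP added; TR-FRET (615/665 nm) read after another 60 min.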

CDK5/p25 = molecular target: T3, CDK5/p25 (Homo sapiens, UniProt Q00535); test: Enzymatic assay for CDK5 (LANCE Ultra kinase assay, FRET based); format: biochemical; details: ATP at Km
T3 construct: purchased Invitrogen PR8543B
Method in brief: as §2

CDK7/Cyclin H/MNAT1 = molecular target: T4, CDK7/Cyclin H/MNAT1 (Homo sapiens, UniProt P50613); test: Enzymatic assay for CDK7 (LANCE Ultra kinase assay, FRET based); format: biochemical; details: for pIC50: ATP at Km
T4 construct: purchased Invitrogen PR6749B
Method in brief: as §1

MV4-11 = test: Cellular MV4-11 viability assay (CellTiter-Glo, 72 hours); format: cell-based; details: Homo sapiens; MV4-11 cells
Method in brief: (§3)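 CellTiter-Glo luminescence read-out after 72 h compound exposure at 37° C, 5% CO2, duplicates. Seeding densities: MV4-11 1×10^4 cells/well, OVCAR-3 5×10^3, A2780 1×10^3. Dose range 0.0015 uM to 10 uM, added 24 h post-plating; DMSO control, final <0.1%.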

A2780 = A2780 viability assay (CellTiter-Glo, 72 hours); format: cell-based; details: Homo sapiens; A2780 cells
Method in brief: as §3

OVCAR-3 = OVCAR-3 viability assay (CellTiter-Glo, 72 hours); format: cell-based; details: Homo sapiens; OVCAR-3 cells
Method in brief: as §3

T1 sequence (P06493 whole entry): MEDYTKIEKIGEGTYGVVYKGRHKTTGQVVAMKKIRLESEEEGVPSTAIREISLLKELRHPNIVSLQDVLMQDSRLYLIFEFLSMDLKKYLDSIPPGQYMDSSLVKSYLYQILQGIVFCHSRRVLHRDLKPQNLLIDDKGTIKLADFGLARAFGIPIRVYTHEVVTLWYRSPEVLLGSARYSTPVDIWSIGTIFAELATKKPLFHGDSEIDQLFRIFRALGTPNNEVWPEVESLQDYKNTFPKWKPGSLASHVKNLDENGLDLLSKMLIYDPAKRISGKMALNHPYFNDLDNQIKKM
T1 sequence (P14635 whole entry partner): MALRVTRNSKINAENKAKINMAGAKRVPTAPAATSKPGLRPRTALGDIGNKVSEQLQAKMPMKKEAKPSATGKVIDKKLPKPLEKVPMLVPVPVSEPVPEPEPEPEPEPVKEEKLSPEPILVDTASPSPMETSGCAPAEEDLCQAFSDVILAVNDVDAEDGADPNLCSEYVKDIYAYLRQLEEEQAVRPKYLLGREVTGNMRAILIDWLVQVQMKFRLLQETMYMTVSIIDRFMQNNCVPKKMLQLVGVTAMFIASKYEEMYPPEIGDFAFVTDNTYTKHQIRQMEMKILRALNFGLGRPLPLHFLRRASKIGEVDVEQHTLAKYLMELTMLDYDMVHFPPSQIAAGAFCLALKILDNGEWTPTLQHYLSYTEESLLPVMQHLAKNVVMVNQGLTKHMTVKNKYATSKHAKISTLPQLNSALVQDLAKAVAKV
T3 sequence (Q00535 whole entry): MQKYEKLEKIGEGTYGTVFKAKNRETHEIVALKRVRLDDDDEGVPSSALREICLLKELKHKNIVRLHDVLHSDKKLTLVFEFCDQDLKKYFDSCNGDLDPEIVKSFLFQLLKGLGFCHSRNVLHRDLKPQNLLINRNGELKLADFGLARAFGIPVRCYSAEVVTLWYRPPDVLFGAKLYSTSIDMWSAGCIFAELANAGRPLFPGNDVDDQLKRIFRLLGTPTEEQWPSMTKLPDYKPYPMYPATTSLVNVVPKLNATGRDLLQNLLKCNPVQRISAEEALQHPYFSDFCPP
T3 sequence (Q15078 99-307 partner limits assumed): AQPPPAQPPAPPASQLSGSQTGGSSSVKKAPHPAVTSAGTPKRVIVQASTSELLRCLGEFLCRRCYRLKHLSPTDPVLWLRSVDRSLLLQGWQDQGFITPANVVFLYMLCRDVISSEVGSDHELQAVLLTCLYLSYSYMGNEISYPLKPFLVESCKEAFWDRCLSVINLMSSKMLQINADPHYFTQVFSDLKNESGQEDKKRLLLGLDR
T4 sequence (P50613 whole entry): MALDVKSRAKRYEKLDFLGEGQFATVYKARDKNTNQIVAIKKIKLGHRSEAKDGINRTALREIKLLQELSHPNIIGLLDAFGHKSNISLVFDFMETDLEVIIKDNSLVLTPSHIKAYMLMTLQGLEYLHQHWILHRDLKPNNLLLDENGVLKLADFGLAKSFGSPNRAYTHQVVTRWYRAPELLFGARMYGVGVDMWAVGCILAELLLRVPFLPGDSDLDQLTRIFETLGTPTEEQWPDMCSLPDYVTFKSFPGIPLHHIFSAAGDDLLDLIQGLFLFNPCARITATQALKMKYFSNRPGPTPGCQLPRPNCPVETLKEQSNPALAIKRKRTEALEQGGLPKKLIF
T4 sequence (P51946 whole entry partner): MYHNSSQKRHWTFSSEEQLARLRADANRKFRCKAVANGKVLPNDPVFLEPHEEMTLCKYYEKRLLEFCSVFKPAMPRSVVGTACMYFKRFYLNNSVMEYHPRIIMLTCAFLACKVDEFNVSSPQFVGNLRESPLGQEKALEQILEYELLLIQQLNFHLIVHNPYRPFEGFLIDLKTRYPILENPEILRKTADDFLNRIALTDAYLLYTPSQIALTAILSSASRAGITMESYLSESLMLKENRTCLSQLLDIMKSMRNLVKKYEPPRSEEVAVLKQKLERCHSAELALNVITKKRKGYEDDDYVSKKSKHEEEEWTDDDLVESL
T4 sequence (P51948 whole entry partner): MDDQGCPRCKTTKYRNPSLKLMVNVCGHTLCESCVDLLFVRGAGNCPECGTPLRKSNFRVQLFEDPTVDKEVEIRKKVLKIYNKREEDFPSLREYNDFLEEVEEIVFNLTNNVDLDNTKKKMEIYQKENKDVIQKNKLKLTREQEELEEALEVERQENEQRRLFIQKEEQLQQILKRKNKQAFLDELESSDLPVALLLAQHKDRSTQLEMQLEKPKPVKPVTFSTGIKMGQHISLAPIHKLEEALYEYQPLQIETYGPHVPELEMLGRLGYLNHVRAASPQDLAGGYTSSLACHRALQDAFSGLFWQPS

SMILES | pIC50 (CDK1/Cyclin B) | pIC50 (CDK2/Cyclin A) | pIC50 (CDK5/p25) | pIC50 (CDK7/Cyclin H/MNAT1) | CDK1/CDK7: Selectivity of CDK7 inhibition over CDK1 inhibition (CDK7/Cyclin H/MNAT1) | CDK2/CDK7: Selectivity of CDK7 inhibition over CDK2 inhibition (CDK7/Cyclin H/MNAT1) | CDK5/CDK7: Selectivity of CDK7 inhibition over CDK5 inhibition (CDK7/Cyclin H/MNAT1) | pIC50 (MV4-11) | pIC50 (A2780) | pIC50 (OVCAR-3)
C/C=C/C(=O)Nc1ccc2c(ccn2-c2ccccc2CNc2nc(NC[C@H]3CCNC[C@@H]3O)nc3c(C(C)C)cnn23)c1 [Compound 74] | < 6.00 | < 6.00 | 6.00 to 7.00 | > 7.00 | B (B indicates 50 < [fold] ≤ 500) | B (B indicates 50 < [fold] ≤ 500) | B (B indicates 50 < [fold] ≤ 500) | > 6.00 | > 6.00 | > 6.00
CC(C)c1cnn2c(NCc3ccccc3-c3nccc4cc(NC(=O)/C=C/CN(C)C)ccc34)nc(N3CCC(NC(=O)OC(C)(C)C)CC3)nc12 [Compound 75] | < 6.00 | < 6.00 | < 6.00 | 6.00 to 7.00 | B (B indicates 50 < [fold] ≤ 500) | B (B indicates 50 < [fold] ≤ 500) | B (B indicates 50 < [fold] ≤ 500) | > 6.00 | > 6.00 | > 6.00
CC(C)c1cnn2c(NCc3ccccc3-c3nccc4cc(NC(=O)/C=C/CN5CCCCC5)ccc34)nc(NC[C@H]3CCNC[C@@H]3O)nc12 [Compound 76] | < 6.00 | < 6.00 | < 6.00 | > 7.00 | A (A indicates [fold] > 500) | A (A indicates [fold] > 500) | A (A indicates [fold] > 500) | > 6.00 | > 6.00 | > 6.00

Next, values leading:

pIC50 (CDK1/Cyclin B) | pIC50 (CDK2/Cyclin A) | pIC50 (CDK5/p25) | pIC50 (CDK7/Cyclin H/MNAT1) | CDK1/CDK7: Selectivity of CDK7 inhibition over CDK1 inhibition (CDK7/Cyclin H/MNAT1) | CDK2/CDK7: Selectivity of CDK7 inhibition over CDK2 inhibition (CDK7/Cyclin H/MNAT1) | CDK5/CDK7: Selectivity of CDK7 inhibition over CDK5 inhibition (CDK7/Cyclin H/MNAT1) | pIC50 (MV4-11) | pIC50 (A2780) | pIC50 (OVCAR-3) | SMILES
< 6.00 | < 6.00 | < 6.00 | > 7.00 | A (A indicates [fold] > 500) | A (A indicates [fold] > 500) | A (A indicates [fold] > 500) | > 6.00 | > 6.00 | > 6.00 | C/C=C/C(=O)Nc1ccc2c(-c3ccccc3CNc3nc(NC[C@H]4CCNC[C@@H]4O)nc4c(C(C)C)cnn34)nccc2c1 [Compound 68]
< 6.00 | < 6.00 | < 6.00 | > 7.00 | B (B indicates 50 < [fold] ≤ 500) | B (B indicates 50 < [fold] ≤ 500) | B (B indicates 50 < [fold] ≤ 500) | > 6.00 | > 6.00 | > 6.00 | C/C=C/C(=O)Nc1ccc2c(-c3ccccc3CNc3nc(N4CCNCC4)nc4c(C(C)C)cnn34)nccc2c1 [Compound 71]
< 6.00 | < 6.00 | < 6.00 | > 7.00 | A (A indicates [fold] > 500) | A (A indicates [fold] > 500) | A (A indicates [fold] > 500) | > 6.00 | > 6.00 | > 6.00 | C/C=C/C(=O)Nc1ccc2c(-c3ccccc3CNc3cc(NC[C@H]4CCNC[C@@H]4O)nc4c(C(C)C)cnn34)nccc2c1 [Compound 72]
< 6.00 | < 6.00 | < 6.00 | > 7.00 | A (A indicates [fold] > 500) | A (A indicates [fold] > 500) | B (B indicates 50 < [fold] ≤ 500) | > 6.00 | 5.00 to 6.00 | 5.00 to 6.00 | C/C=C/C(=O)Nc1cccc2cc(-c3cccc(C)c3CNc3nc(NC[C@H]4CCNC[C@@H]4O)nc4c(C(C)C)cnn34)[nH]c12 [Compound 73]
